Columns and labels:
Assay in all cases: Kinase inhibitor library screening, PrestoBlue cell viability, 1 or 10 μM, 72 h
[1] = system: A375-XP cells (Vemurafenib-resistant); settings: A375 XP, 72 h
A375 cells (parental) = settings: A375 Parental, 72 h; for cell viability, A375 Parental, 1μΜ / cell viability, A375 Parental, 10μΜ: in %
501Mel cells (parental) = settings: 501Mel Parental, 72 h; for cell viability, 501Mel Parental, 1μΜ / cell viability, 501Mel Parental, 10μΜ: in %
Summary of the method: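 Treatment: 72 h with inhibitor. Detection: PrestoBlue, plate reader. Output: viability as % untreated control. Replicates: duplicate minimum. Lines: parental plus Vemurafenib- or Dabrafenib-resistant derivatives.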

IGR37 cells (parental) = settings: IGR37 Parental, 72 h; for cell viability, IGR37 Parental, 1μΜ / cell viability, IGR37 Parental, 10μΜ: in %
[2] = system: IGR37-XP cells (Vemurafenib-resistant); settings: IGR37 XP, 72 h; for cell viability, IGR37 XP, 1μΜ: in %
[3] = system: 501Mel-XP cells (Vemurafenib-resistant); settings: 501Mel XP, 72 h; for cell viability, 501Mel XP, 1μΜ / cell viability, 501Mel XP, 10μΜ: in %
[4] = system: 501Mel-GP cells (Dabrafenib-resistant); settings: 501Mel GP, 72 h; for cell viability, 501Mel GP, 1μΜ / cell viability, 501Mel GP, 10μΜ: in %
[5] = system: A375-GP cells (Dabrafenib-resistant); settings: A375 GP, 72 h; for cell viability, A375 GP, 1μΜ / cell viability, A375 GP, 10μΜ: in %
[6] = system: IGR37-GP cells (Dabrafenib-resistant); settings: IGR37 GP, 72 h; for cell viability, IGR37 GP, 1μΜ: in %

Row | Structure (SMILES) | cell viability, A375 XP, 10μΜ ([1]; 10μΜ, in %) | cell viability, A375 Parental, 1μΜ (A375 cells (parental); 1μΜ) | cell viability, A375 Parental, 10μΜ (A375 cells (parental); 10μΜ) | cell viability, 501Mel Parental, 1μΜ (501Mel cells (parental); 1μΜ) | cell viability, 501Mel Parental, 10μΜ (501Mel cells (parental); 10μΜ) | cell viability, IGR37 Parental, 1μΜ (IGR37 cells (parental); 1μΜ) | cell viability, IGR37 Parental, 10μΜ (IGR37 cells (parental); 10μΜ) | cell viability, IGR37 XP, 10μΜ ([2]; 10μΜ) [%] | cell viability, IGR37 XP, 1μΜ ([2]; 1μΜ) | cell viability, 501Mel XP, 1μΜ ([3]; 1μΜ) | cell viability, 501Mel XP, 10μΜ ([3]; 10μΜ) | cell viability, 501Mel GP, 1μΜ ([4]; 1μΜ) | cell viability, 501Mel GP, 10μΜ ([4]; 10μΜ) | cell viability, A375 GP, 1μΜ [5] | cell viability, A375 GP, 10μΜ ([5]; 10μΜ) | cell viability, IGR37 GP, 10μΜ ([6]; 10μΜ) [%] | cell viability, IGR37 GP, 1μΜ ([6]; 1μΜ) | further results
1 | CCc1cc2c(cc1N1CCC(N3CCOCC3)CC1)C(C)(C)c1[nH]c3cc(C#N)ccc3c1C2=O [CH5424802] | – | – | – | – | – | – | – | – | – | – | – | – | – | – | – | – | – | cell viability (kinase inhibitor library screening) ([1]; 1μΜ): 105.6%; cell viability (kinase inhibitor library screening) ([1]; 10μΜ): 75.8%; cell viability (kinase inhibitor library screening) (A375 cells (parental); 10μΜ): 64.9%; cell viability (kinase inhibitor library screening) (A375 cells (parental); 1μΜ): 106.9%; cell viability (kinase inhibitor library screening) (501Mel cells (parental); 1μΜ): 109.6%; cell viability (kinase inhibitor library screening) (501Mel cells (parental); 10μΜ): 80.1%; cell viability (kinase inhibitor library screening) (IGR37 cells (parental); 1μΜ): 103.9%; cell viability (kinase inhibitor library screening) (IGR37 cells (parental); 10μΜ): 96.2%; cell viability (kinase inhibitor library screening) ([2]; 1μΜ): 106.4%; cell viability (kinase inhibitor library screening) ([2]; 10μΜ): 5.0%; cell viability (kinase inhibitor library screening) ([3]; 1μΜ): 99.2%; cell viability (kinase inhibitor library screening) ([3]; 10μΜ): 32.3%; cell viability (kinase inhibitor library screening) ([4]; 1μΜ): 104.8%; cell viability (kinase inhibitor library screening) ([4]; 10μΜ): 72.7%; cell viability (kinase inhibitor library screening) ([5]; 10μΜ): 71.2%; cell viability (kinase inhibitor library screening) ([6]; 1μΜ): 105.2%; cell viability (kinase inhibitor library screening) ([6]; 10μΜ): 10.4%
2 | C=CC(=O)Nc1cc2c(Nc3ccc(F)c(Cl)c3)ncnc2cc1OCCCN1CCOCC1 [CI-1033 (Canertinib)] | 15.2 | 105.5 | 24.5 | 103.3 | 35.1 | 98.8 | 53.7 | 23.7 | 99.0 | 93.9 | 0.248 | 102.8 | 1.4 | 99.4 | 23.3 | 30.7 | 92.4 | –
3 | O=C(NOCC1CC1)c1ccc(F)c(F)c1Nc1ccc(I)cc1Cl [CI-1040 (PD184352)] | 12.9 | 22.5 | 21.5 | 64.1 | 50.2 | 43.0 | 35.8 | 26.4 | 81.9 | 81.0 | 46.4 | 98.8 | 56.0 | 35.2 | 16.8 | 55.9 | 84.8 | cell viability, A375 XP, 1μΜ ([1]; 1μΜ, in %): 44.6

Reference: PMC6364417, “Kinase inhibitor library screening identifies synergistic drug combinations effective in sensitive and resistant melanoma cells” (Journal of Experimental & Clinical Cancer Research : CR, 2019)
